Experimental data published in ChEMBL document CHEMBL1135403, “Nanomolar inhibitors of Staphylococcus aureus methionyl tRNA synthetase with potent antibacterial activity against gram-positive pathogens” (J Med Chem, 2002).
Values after ≈ are worked out from the molar mass of the structure shown.

Key:
Staphylococcus aureus [1] = experiment: In vitro minimum inhibitory activity against Staphylococcus aureus Oxford strain; format: functional
Enterococcus faecalis [2] = experiment: MIC required to inhibit 90% of the growth of Enterococcus faecalis (n = 10); format: functional
Staphylococcus aureus [3] = experiment: MIC required to inhibit 90% of the growth of Staphylococcus aureus (n = 31); format: functional
Enterococcus faecium = experiment: MIC required to inhibit 90% of the growth of Enterococcus faecium (n = 10); format: functional
Staphylococcus aureus [4] = experiment: In vitro minimum inhibitory activity against Staphylococcus aureus WCUH29 strain; format: functional
Enterococcus faecalis [5] = experiment: In vitro minimum inhibitory activity against Enterococcus faecalis 1 strain; format: functional
Staphylococcus aureus [6] = experiment: In vitro inhibitory concentration against Staphylococcus aureus Methionyl tRNA synthetase; format: functional
Enterococcus faecalis [7] = experiment: In vitro minimum inhibitory activity against Enterococcus faecalis 7 strain; format: functional
[8] = system: Staphylococcus epidermidis; experiment: MIC required to inhibit 90% of the growth of Staphylococcus epidermidis (n = 10); format: functional
Staphylococcus aureus [9] = experiment: In vivo efficacy against Staphylococcus aureus WCUH29 in a Groin Abscess infection in rats at a dose of 21 mg/kg; log10 cfu; format: functional
Nucleic Acid = experiment: In vitro inhibitory concentration against tRNA synthetases, in a pyrophosphate exchange assay; format: functional, Staphylococcus aureus
Staphylococcus aureus [10] = experiment: In vitro antibacterial activity and competitive kinetics with respect to methionine; format: functional, organism-based
Staphylococcus aureus [11] = experiment: In vivo efficacy against Staphylococcus aureus WCUH29 in a Groin Abscess infection in rats at a dose of 50 mg/kg; log10 cfu; format: functional

MIC90 (Enterococcus faecalis [2])	MIC90 (Staphylococcus aureus [3])	MIC90 (Enterococcus faecium)	MIC90 [8]	IC50 (Nucleic Acid)	Structure (SMILES)	MIC (Staphylococcus aureus [1])	MIC (Staphylococcus aureus [4])	MIC (Enterococcus faecalis [5])	IC50 (Staphylococcus aureus [6])	MIC (Enterococcus faecalis [7])	Bacterial counts (Staphylococcus aureus [9])	Ki (Staphylococcus aureus [10])	Bacterial counts (Staphylococcus aureus [11])
0.03 µg/mL (≈ 0.0593 µM)	0.5 µg/mL (≈ 0.988 µM)	< 0.016 µg/mL	0.5 µg/mL (≈ 0.988 µM)		Oc1cc(NCCCNC2CCNc3c(Br)cc(Br)cc32)nc2ccccc12 (configuration not stated)	< 0.06 µg/mL	0.125 µg/mL (≈ 0.247 µM)	< 0.06 µg/mL	8 nM	< 0.06 µg/mL			
0.25 µg/mL (≈ 0.498 µM)	1 µg/mL (≈ 1.99 µM)	0.06 µg/mL (≈ 0.119 µM)	1 µg/mL (≈ 1.99 µM)	1.4 nM	CCc1cc(I)c2c(c1)C(NCCCNc1cc(=O)c3ccccc3[nH]1)CCN2 (configuration not stated)	0.25 µg/mL (≈ 0.498 µM)	0.25 µg/mL (≈ 0.498 µM)	< 0.06 µg/mL		0.125 µg/mL (≈ 0.249 µM)	3.9		
					O=c1cc(NCCCNCc2ccc(Cl)c(Cl)c2)[nH]c2ccccc12	4 µg/mL (≈ 10.6 µM)	8 µg/mL (≈ 21.3 µM)	2 µg/mL (≈ 5.32 µM)	16 nM	2 µg/mL (≈ 5.32 µM)		5 nM	
					CC[C@H]1OC(=O)[C@H](C)[C@@H](O[C@H]2C[C@@](C)(OC)[C@@H](O)[C@H](C)O2)[C@H](C)[C@@H](O[C@@H]2O[C@H](C)C[C@H](N(C)C)[C@H]2O)[C@](C)(O)C[C@@H](C)C(=O)[C@H](C)[C@@H](O)[C@]1(C)O [ERYTHROMYCIN]								3.7
					C/C(=C\C(=O)OCCCCCCCCC(=O)O)C[C@@H]1OC[C@H](C[C@@H]2O[C@H]2[C@@H](C)[C@H](C)O)[C@@H](O)[C@H]1O [MUPIROCIN]		0.25 µg/mL (≈ 0.499 µM)	64 µg/mL (≈ 128 µM)		64 µg/mL (≈ 128 µM)			

Structure (SMILES)	MIC90 (Enterococcus faecalis [2])	MIC90 (Staphylococcus aureus [3])	MIC90 (Enterococcus faecium)	MIC90 [8]	IC50 (Nucleic Acid)	MIC (Staphylococcus aureus [1])	MIC (Staphylococcus aureus [4])	MIC (Enterococcus faecalis [5])	IC50 (Staphylococcus aureus [6])	MIC (Enterococcus faecalis [7])	Bacterial counts (Staphylococcus aureus [9])	Ki (Staphylococcus aureus [10])	Bacterial counts (Staphylococcus aureus [11])
CC1(C)S[C@@H]2[C@H](NC(=O)[C@H](N)c3ccc(O)cc3)C(=O)N2[C@H]1C(=O)O [AMOXICILLIN]	> 16 µg/mL	> 16 µg/mL	> 16 µg/mL	8 µg/mL (≈ 21.9 µM)		0.125 µg/mL (≈ 0.342 µM)	> 64 µg/mL	0.5 µg/mL (≈ 1.37 µM)		0.5 µg/mL (≈ 1.37 µM)			
